Assay results taken from PubChem BioAssay (NCI).
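Five concentrations, 48 hours, 96-well plates. TGI marks complete inhibition of growth.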

Tests used:
Assay in all cases: inhibition of tumour cell growth, NCI panel, 48 h
ACHN renal = tested on: ACHN renal
SNB-19 CNS = tested on: SNB-19 CNS
TK-10 renal = tested on: TK-10 renal
NCI-H460 lung = tested on: NCI-H460 lung
IGROV1 ovarian = tested on: IGROV1 ovarian
M14 melanoma = tested on: M14 melanoma
K-562 leukemia = tested on: K-562 leukemia
SF-295 CNS = tested on: SF-295 CNS
LOX IMVI melanoma = tested on: LOX IMVI melanoma
SK-MEL-28 melanoma = tested on: SK-MEL-28 melanoma
OVCAR-4 ovarian = tested on: OVCAR-4 ovarian
COLO 205 colon = tested on: COLO 205 colon
DMS 114 small cell lung = tested on: DMS 114 small cell lung
786-0 renal = tested on: 786-0 renal
HCT-15 colon = tested on: HCT-15 colon
U251 CNS = tested on: U251 CNS
UACC-257 melanoma = tested on: UACC-257 melanoma
OVCAR-8 ovarian = tested on: OVCAR-8 ovarian
HOP-62 NSCLC = tested on: HOP-62 NSCLC
CCRF-CEM leukemia = tested on: CCRF-CEM leukemia
OVCAR-5 ovarian = tested on: OVCAR-5 ovarian
XF 498 CNS = tested on: XF 498 CNS
M19-MEL melanoma = tested on: M19-MEL melanoma
KM20L2 colon = tested on: KM20L2 colon
SW-620 colon = tested on: SW-620 colon
SK-MEL-2 melanoma = tested on: SK-MEL-2 melanoma
HOP-92 NSCLC = tested on: HOP-92 NSCLC
CAKI-1 renal = tested on: CAKI-1 renal
DLD-1 colon = tested on: DLD-1 colon
UACC-62 melanoma = tested on: UACC-62 melanoma
HOP-18 NSCLC = tested on: HOP-18 NSCLC
DMS 273 small cell lung = tested on: DMS 273 small cell lung
SNB-75 CNS = tested on: SNB-75 CNS
HT29 colon = tested on: HT29 colon
NCI-H226 lung = tested on: NCI-H226 lung
HL-60(TB) leukemia = tested on: HL-60(TB) leukemia
SK-OV-3 ovarian = tested on: SK-OV-3 ovarian
UO-31 renal = tested on: UO-31 renal
RXF 393 renal = tested on: RXF 393 renal
HCT-116 colon = tested on: HCT-116 colon
SF-268 CNS = tested on: SF-268 CNS
HCC-2998 colon = tested on: HCC-2998 colon
NCI-H23 lung = tested on: NCI-H23 lung
MOLT-4 leukemia = tested on: MOLT-4 leukemia
LXFL 529 NSCLC = tested on: LXFL 529 NSCLC
KM12 colon = tested on: KM12 colon
A549 NSCLC = tested on: A549 NSCLC
MALME-3M melanoma = tested on: MALME-3M melanoma
SF-539 CNS = tested on: SF-539 CNS
EKVX NSCLC = tested on: EKVX NSCLC
SNB-78 CNS = tested on: SNB-78 CNS
OVCAR-3 ovarian = tested on: OVCAR-3 ovarian
SK-MEL-5 melanoma = tested on: SK-MEL-5 melanoma
NCI-H522 lung = tested on: NCI-H522 lung
RPMI-8226 leukemia = tested on: RPMI-8226 leukemia

Measured: TGI

COc1ccc(C2Oc3ccc(O)cc3[C@@H]2C)cc1OC (stereo not given in full)
> 100 µM: all assays above
